In brackets after ≈: the same amount, converted by molar mass.
Experiments:
Format in all cases: functional
Conditions in all cases: 336 h
[1] = system: Mycobacterium tuberculosis; assay: Antibacterial activity against Mycobacterium tuberculosis H37Rv after 2 weeks by broth dilution method
Staphylococcus aureus [2] = assay: Antibacterial activity against Staphylococcus aureus after 2 weeks by broth dilution method
[3] = system: Mycobacterium tuberculosis; assay: Antimycobacterial activity against Mycobacterium tuberculosis A-1-2 after 2 weeks by broth dilution method
Staphylococcus aureus [4] = assay: Antibacterial activity against methicillin-resistant Staphylococcus aureus 908 after 2 weeks by broth dilution method
[5] = system: Mycobacterium tuberculosis; assay: Antimycobacterial activity against Mycobacterium tuberculosis A-3-22 after 2 weeks by broth dilution method
[6] = system: Mycobacterium tuberculosis; assay: Antimycobacterial activity against Mycobacterium tuberculosis A-3-16 after 2 weeks by broth dilution method
[7] = system: Mycobacterium tuberculosis; assay: Antimycobacterial activity against Mycobacterium tuberculosis A-3-12 after 2 weeks by broth dilution method
[8] = system: Mycobacterium tuberculosis; assay: Antimycobacterial activity against Mycobacterium tuberculosis A-3-21 after 2 weeks by broth dilution method
[9] = system: Mycobacterium tuberculosis; assay: Antimycobacterial activity against Mycobacterium tuberculosis A-3-1 after 2 weeks by broth dilution method
[10] = system: Mycobacterium tuberculosis; assay: Antimycobacterial activity against Mycobacterium tuberculosis A-3-17 after 2 weeks by broth dilution method
[11] = system: Mycobacterium tuberculosis; assay: Antimycobacterial activity against Mycobacterium tuberculosis A-3-5 after 2 weeks by broth dilution method
[12] = system: Mycobacterium tuberculosis; assay: Antimycobacterial activity against Mycobacterium tuberculosis A-1-3 after 2 weeks by broth dilution method
[13] = system: Mycobacterium tuberculosis; assay: Antimycobacterial activity against Mycobacterium tuberculosis A-2-5 after 2 weeks by broth dilution method
[14] = system: Mycobacterium tuberculosis; assay: Antimycobacterial activity against Mycobacterium tuberculosis A-3-15 after 2 weeks by broth dilution method
[15] = system: Mycobacterium tuberculosis; assay: Antimycobacterial activity against Mycobacterium tuberculosis A-1-1 after 2 weeks by broth dilution method
Staphylococcus aureus [16] = assay: Antibacterial activity against methicillin-resistant Staphylococcus aureus 910 after 2 weeks by broth dilution method
Staphylococcus aureus [17] = assay: Antibacterial activity against methicillin-resistant Staphylococcus aureus 906 after 2 weeks by broth dilution method
[18] = system: Mycobacterium tuberculosis; assay: Antimycobacterial activity against Mycobacterium tuberculosis A-3-19 after 2 weeks by broth dilution method
Staphylococcus aureus [19] = assay: Antibacterial activity against methicillin-resistant Staphylococcus aureus 873 after 2 weeks by broth dilution method
Mycobacterium avium = assay: Antibacterial activity against Mycobacterium avium 724S after 2 weeks by broth dilution method
[20] = system: Mycobacterium tuberculosis; assay: Antimycobacterial activity against Mycobacterium tuberculosis A-3-11 after 2 weeks by broth dilution method
[21] = system: Mycobacterium tuberculosis; assay: Antimycobacterial activity against Mycobacterium tuberculosis A-3-20 after 2 weeks by broth dilution method
[22] = system: Mycobacterium tuberculosis; assay: Antimycobacterial activity against Mycobacterium tuberculosis A-3-9 after 2 weeks by broth dilution method
[23] = system: Mycobacterium tuberculosis; assay: Antimycobacterial activity against Mycobacterium tuberculosis A-3-6 after 2 weeks by broth dilution method
[24] = system: Mycobacterium tuberculosis; assay: Antimycobacterial activity against Mycobacterium tuberculosis A-3-2 after 2 weeks by broth dilution method

OC[C@H](O)[C@@H](O)[C@H](O)[C@H](O)CO[C@H]1O[C@H](CO[C@H]2O[C@H](CO)[C@H](O)[C@H](O)[C@H]2O)[C@H](O)[C@H](O)[C@H]1O
MIC [1]: > 800 µg/mL | MIC (Staphylococcus aureus [2]): > 800 µg/mL

CCCCO[C@@H]1O[C@H](CO[C@H]2O[C@H](CO[C@H]3O[C@H](COC(C)=O)[C@H](OC(C)=O)[C@H](OC(C)=O)[C@H]3OC(C)=O)[C@H](OC(C)=O)[C@H](OC(C)=O)[C@H]2OC(C)=O)[C@@H](OC(C)=O)[C@H](OC(C)=O)[C@H]1OC(C)=O
MIC [1]: > 800 µg/mL | MIC (Staphylococcus aureus [2]): > 800 µg/mL

C=CCO[C@@H]1O[C@H](CO[C@H]2O[C@H](CO[C@H]3O[C@H](COC(C)=O)[C@H](OC(C)=O)[C@H](OC(C)=O)[C@H]3OC(C)=O)[C@H](OC(C)=O)[C@H](OC(C)=O)[C@H]2OC(C)=O)[C@@H](OC(C)=O)[C@H](OC(C)=O)[C@H]1OC(C)=O
MIC [3]: 6.25 µg/mL (≈ 6.48 µM) | MIC (Staphylococcus aureus [4]; read-out: MIC): 7.54 µg/mL (≈ 7.81 µM) | MIC [5]: 3.13 µg/mL (≈ 3.24 µM) | MIC [6]: 6.25 µg/mL (≈ 6.48 µM) | MIC [1]: 3.13 µg/mL (≈ 3.24 µM) | MIC [7]: 6.25 µg/mL (≈ 6.48 µM) | MIC [8]: 6.25 µg/mL (≈ 6.48 µM) | MIC [9]: 25 µg/mL (≈ 25.9 µM) | MIC [10]: 3.13 µg/mL (≈ 3.24 µM) | MIC (Staphylococcus aureus [2]): 3.13 µg/mL (≈ 3.24 µM) | MIC [11]: 6.25 µg/mL (≈ 6.48 µM) | MIC [12]: 6.25 µg/mL (≈ 6.48 µM) | MIC [13]: 12.5 µg/mL (≈ 13 µM) | MIC [14]: 3.13 µg/mL (≈ 3.24 µM) | MIC [15]: 6.25 µg/mL (≈ 6.48 µM) | MIC (Staphylococcus aureus [16]): 15.1 µg/mL (≈ 15.6 µM) | MIC (Staphylococcus aureus [17]): 15.1 µg/mL (≈ 15.6 µM) | MIC [18]: 3.13 µg/mL (≈ 3.24 µM) | MIC (Staphylococcus aureus [19]): 3.77 µg/mL (≈ 3.91 µM) | MIC (Mycobacterium avium): 3.13 µg/mL (≈ 3.24 µM) | MIC [20]: 3.13 µg/mL (≈ 3.24 µM) | MIC [21]: 6.25 µg/mL (≈ 6.48 µM) | MIC [22]: 3.13 µg/mL (≈ 3.24 µM) | MIC [23]: 6.25 µg/mL (≈ 6.48 µM) | MIC [24]: 25 µg/mL (≈ 25.9 µM)

CO[C@@H]1O[C@H](CO[C@H]2O[C@H](CO[C@H]3O[C@H](COC(C)=O)[C@H](OC(C)=O)[C@H](OC(C)=O)[C@H]3OC(C)=O)[C@H](OC(C)=O)[C@H](OC(C)=O)[C@H]2OC(C)=O)[C@@H](OC(C)=O)[C@H](OC(C)=O)[C@H]1OC(C)=O
MIC [1]: > 800 µg/mL | MIC (Staphylococcus aureus [2]): > 800 µg/mL

C#CCO[C@@H]1O[C@H](CO[C@H]2O[C@H](CO[C@H]3O[C@H](COC(C)=O)[C@H](OC(C)=O)[C@H](OC(C)=O)[C@H]3OC(C)=O)[C@H](OC(C)=O)[C@H](OC(C)=O)[C@H]2OC(C)=O)[C@@H](OC(C)=O)[C@H](OC(C)=O)[C@H]1OC(C)=O
MIC [1]: > 800 µg/mL | MIC (Staphylococcus aureus [2]): > 800 µg/mL

C/C=C/CO[C@@H]1O[C@H](CO[C@H]2O[C@H](CO[C@H]3O[C@H](COC(C)=O)[C@H](OC(C)=O)[C@H](OC(C)=O)[C@H]3OC(C)=O)[C@H](OC(C)=O)[C@H](OC(C)=O)[C@H]2OC(C)=O)[C@@H](OC(C)=O)[C@H](OC(C)=O)[C@H]1OC(C)=O
MIC [1]: > 400 µg/mL | MIC (Staphylococcus aureus [2]): > 400 µg/mL

C=CCO[C@H]1O[C@H](CO[C@H]2O[C@H](CO[C@H]3O[C@H](COC(C)=O)[C@H](OC(C)=O)[C@H](OC(C)=O)[C@H]3OC(C)=O)[C@H](OC(C)=O)[C@H](OC(C)=O)[C@H]2OC(C)=O)[C@@H](OC(C)=O)[C@H](OC(C)=O)[C@H]1OC(C)=O
MIC [1]: > 800 µg/mL | MIC (Staphylococcus aureus [2]): > 800 µg/mL

CCO[C@@H]1O[C@H](CO[C@H]2O[C@H](CO[C@H]3O[C@H](COC(C)=O)[C@H](OC(C)=O)[C@H](OC(C)=O)[C@H]3OC(C)=O)[C@H](OC(C)=O)[C@H](OC(C)=O)[C@H]2OC(C)=O)[C@@H](OC(C)=O)[C@H](OC(C)=O)[C@H]1OC(C)=O
MIC [1]: > 800 µg/mL | MIC (Staphylococcus aureus [2]): > 800 µg/mL

CCCO[C@@H]1O[C@H](CO[C@H]2O[C@H](CO[C@H]3O[C@H](COC(C)=O)[C@H](OC(C)=O)[C@H](OC(C)=O)[C@H]3OC(C)=O)[C@H](OC(C)=O)[C@H](OC(C)=O)[C@H]2OC(C)=O)[C@@H](OC(C)=O)[C@H](OC(C)=O)[C@H]1OC(C)=O
MIC [1]: > 800 µg/mL | MIC (Staphylococcus aureus [2]): > 800 µg/mL

CC(=O)OC[C@H]1O[C@H](OC[C@H]2O[C@H](OC[C@H]3O[C@@H](OC(C)C)[C@H](OC(C)=O)[C@@H](OC(C)=O)[C@@H]3OC(C)=O)[C@H](OC(C)=O)[C@@H](OC(C)=O)[C@H]2OC(C)=O)[C@H](OC(C)=O)[C@@H](OC(C)=O)[C@H]1OC(C)=O
MIC [1]: > 800 µg/mL | MIC (Staphylococcus aureus [2]): > 800 µg/mL

C=CCO[C@@H]1O[C@H](CO[C@H]2O[C@H](CO[C@H]3O[C@H](CO)[C@H](O)[C@H](O)[C@H]3O)[C@H](O)[C@H](O)[C@H]2O)[C@@H](O)[C@H](O)[C@H]1O
MIC (Staphylococcus aureus [4]; read-out: MIC): > 100 µg/mL | MIC [1]: > 100 µg/mL | MIC (Staphylococcus aureus [2]): > 100 µg/mL | MIC (Staphylococcus aureus [16]): > 100 µg/mL | MIC (Staphylococcus aureus [17]): > 100 µg/mL | MIC (Staphylococcus aureus [19]): 100 µg/mL (≈ 184 µM) | MIC (Mycobacterium avium): > 100 µg/mL

CC(=O)OC[C@H](OC(C)=O)[C@@H](OC(C)=O)[C@H](OC(C)=O)[C@@H](CO[C@H]1O[C@H](CO[C@H]2O[C@H](COC(C)=O)[C@H](OC(C)=O)[C@H](OC(C)=O)[C@H]2OC(C)=O)[C@H](OC(C)=O)[C@H](OC(C)=O)[C@H]1OC(C)=O)OC(C)=O
MIC [1]: > 800 µg/mL | MIC (Staphylococcus aureus [2]): > 800 µg/mL

CN[C@@H]1[C@H](O[C@H]2[C@H](O[C@H]3[C@H](O)[C@@H](O)[C@H](N=C(N)N)[C@@H](O)[C@@H]3N=C(N)N)O[C@@H](C)[C@]2(O)C=O)O[C@@H](CO)[C@H](O)[C@H]1O (stereo in doubt) [STREPTOMYCIN]
MIC [1]: 0.2 µg/mL (≈ 0.344 µM) | MIC (Staphylococcus aureus [2]): 100 µg/mL (≈ 172 µM) | MIC (Staphylococcus aureus [17]): 100 µg/mL (≈ 172 µM) | MIC (Staphylococcus aureus [19]): > 100 µg/mL | MIC (Mycobacterium avium): 0.4 µg/mL (≈ 0.688 µM)

C=CCO [ALLYL ALCOHOL]
MIC [1]: > 400 µg/mL | MIC (Staphylococcus aureus [2]): > 400 µg/mL

C=CCN=C=S [ALLYL ISOTHIOCYANATE]
MIC [1]: > 800 µg/mL | MIC (Staphylococcus aureus [2]): > 800 µg/mL

CC[C@@H](CO)NCCN[C@@H](CC)CO [ETHAMBUTOL]
MIC (Staphylococcus aureus [4]; read-out: MIC): > 100 µg/mL | MIC [1]: 1.25 µg/mL (≈ 6.12 µM) | MIC (Staphylococcus aureus [2]): > 100 µg/mL | MIC (Staphylococcus aureus [16]): > 100 µg/mL | MIC (Staphylococcus aureus [17]): > 100 µg/mL | MIC (Staphylococcus aureus [19]): > 100 µg/mL | MIC (Mycobacterium avium): 3 µg/mL (≈ 14.7 µM)

NNC(=O)c1ccncc1 [ISONIAZID]
MIC (Staphylococcus aureus [4]; read-out: MIC): > 100 µg/mL | MIC [1]: 0.075 µg/mL (≈ 0.547 µM) | MIC (Staphylococcus aureus [2]): > 100 µg/mL | MIC (Staphylococcus aureus [16]): > 100 µg/mL | MIC (Staphylococcus aureus [19]): > 100 µg/mL | MIC (Mycobacterium avium): 12.5 µg/mL (≈ 91.1 µM)

CO[C@H]1/C=C/O[C@@]2(C)Oc3c(C)c(O)c4c(O)c(c(/C=N/N5CCN(C)CC5)c(O)c4c3C2=O)NC(=O)/C(C)=C\C=C\[C@H](C)[C@H](O)[C@@H](C)[C@@H](O)[C@@H](C)[C@H](OC(C)=O)[C@@H]1C [RIFAMPIN]
MIC (Staphylococcus aureus [4]): 0.004 µg/mL (≈ 0.00486 µM) | MIC [1]: > 0.008 µg/mL | MIC (Staphylococcus aureus [2]): 0.004 µg/mL (≈ 0.00486 µM) | MIC (Staphylococcus aureus [16]): 0.004 µg/mL (≈ 0.00486 µM) | MIC (Staphylococcus aureus [17]): 0.004 µg/mL (≈ 0.00486 µM) | MIC (Staphylococcus aureus [19]): 0.004 µg/mL (≈ 0.00486 µM) | MIC (Mycobacterium avium): 0.004 µg/mL (≈ 0.00486 µM)

— ChEMBL document CHEMBL1147864, “Synthesis of new sugar derivatives from Stachys sieboldi Miq and antibacterial evaluation against Mycobacterium tuberculosis, Mycobacterium avium, and Staphylococcus aureus” (2007)
